These results are taken from US9688698B2, “Heteroaromatic compounds and their use as dopamine D1 ligands” (PFIZER INC., priority 2014, dated 2017).

The target in the experiment is T1, Human D1 Receptor (Homo sapiens, UniProt P21728).
T1 construct: expressed in transfected cells; host or cells: LTK cell line over-expressing the D1 receptor
In words: Human D1 Receptor Binding Assay ([3H]-SCH23390 competition binding). Conditions: over-expressing LTK human cell lines; 0.5 nM [3H]-SCH23390; 30 min at 37° C.; footnote a = geometric mean of ≧5 determinations, footnote b = single determination; read-out: Human D1 Receptor Binding, Ki (nM); Geometric mean of 2-4 determinations (unless otherwise indicated). As for the experimental part:
The affinity of the compounds described herein was determined by competition binding assays similar to those described in Ryman-Rasmussen et al., “Differential activation of adenylate cyclase and receptor internalization by novel dopamine D1 receptor agonists”, Molecular Pharmacology 68(4):1039-1048 (2005).
D1 binding assays were performed using over-expressing LTK human cell lines. […] These ligand and tissue concentrations were used in time course studies to determine linearity and equilibrium conditions for binding. Binding was at equilibrium with the specified amount of tissue in 30 minutes at 37° C. […] The pellet was resuspended in assay buffer [50 mM Tris (pH 7.4@RT) containing 4 mM MgSO4 and 0.5 mM EDTA]. […] Non-specific binding was determined by radioligand binding in the presence of a saturating concentration of (+)-Butaclamol (10 μM), a D1 antagonist. After a 30 minute incubation period at 37° C., assay samples were rapidly filtered through Unifilter-96 GF/B PEI-coated filter plates and rinsed with 50 mM Tris buffer (pH 7.4 at 4° C.). […] The IC50 value (concentration at which 50% inhibition of specific binding occurs) was calculated by linear regression of the concentration-response data in Microsoft Excel. Ki values were calculated according to the Cheng-Prusoff equation: […]

Each structure is given as a SMILES string. Structures can show the parent of a compound that is named as a salt.

T1 sequence (P21728 whole entry): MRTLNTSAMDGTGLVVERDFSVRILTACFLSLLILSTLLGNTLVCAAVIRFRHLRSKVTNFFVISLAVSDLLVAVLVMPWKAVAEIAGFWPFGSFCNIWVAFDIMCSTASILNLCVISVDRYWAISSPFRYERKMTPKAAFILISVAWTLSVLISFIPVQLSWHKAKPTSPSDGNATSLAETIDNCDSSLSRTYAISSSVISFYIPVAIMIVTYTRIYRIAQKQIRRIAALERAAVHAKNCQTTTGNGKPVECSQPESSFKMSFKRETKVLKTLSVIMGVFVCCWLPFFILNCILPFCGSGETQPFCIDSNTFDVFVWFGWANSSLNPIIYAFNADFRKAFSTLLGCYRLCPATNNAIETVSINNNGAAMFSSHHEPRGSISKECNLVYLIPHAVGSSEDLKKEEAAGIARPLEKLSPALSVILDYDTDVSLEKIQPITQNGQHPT

Usually Ki stands for the equilibrium dissociation constant of an inhibitor or competing ligand from its target. In the case of `Cc1cc(Oc2ncnc3ccsc23)ccc1-c1c(C)c(=O)[nH]c(=O)n1C` (single isomer, unassigned) [Example 1, (+)-1,5-dimethyl-6-[2-methyl-4-(thieno[3,2-d]pyrimidin-4-yloxy)phenyl]pyrimidine-2,4(1H,3H)-dione], the Ki was 4.1 nM. The figure for `Cc1cc(Oc2ncnc3ccsc23)ccc1-c1c(C)c(=O)[nH]c(=O)n1C` (single isomer, unassigned) [Example 2, (−)-1,5-dimethyl-6-[2-methyl-4-(thieno[3,2-d]pyrimidin-4-yloxy)phenyl]pyrimidine-2,4(1H,3H)-dione] is 1.8 nM. The same measure for `Cc1cc(Oc2nccc3ncsc23)ccc1-c1c(C)ncc(=O)n1C` (single isomer, unassigned) [Example 29, (−)-1,5-dimethyl-6-[2-methyl-4-([1,3]thiazolo[5,4-c]pyridin-4-yloxy)phenyl]pyrazin-2(1H)-one]: 40.6 nM; for `Cc1cc(Oc2nccc3ncsc23)ccc1-c1c(C)ncc(=O)n1C` (single isomer, unassigned) [Example 30, (+)-1,5-dimethyl-6-[2-methyl-4-([1,3]thiazolo[5,4-c]pyridin-4-yloxy)phenyl]pyrazin-2(1H)-one]: 116 nM. The same measure for `Cc1cc(Oc2nccc3ncsc23)ccc1-c1c(C)cnnc1C` (single isomer, unassigned) [Example 64, (+)-4-[4-(3,5-dimethylpyridazin-4-yl)-3-methylphenoxy][1,3]thiazolo[5,4-c]pyridine]: 32.3 nM; for `Cc1cc(Oc2nccc3ncsc23)ccc1-c1c(C)cnnc1C` (single isomer, unassigned) [Example 65, (−)-4-[4-(3,5-dimethylpyridazin-4-yl)-3-methylphenoxy][1,3]thiazolo[5,4-c]pyridine]: 223 nM; for `Cc1cc(Oc2nccc3ccsc23)ccc1-c1c(C)ncnc1C#N` (single isomer, unassigned; ent-1) [Example 45, 6-methyl-5-[2-methyl-4-(thieno[2,3-c]pyridin-7-yloxy)phenyl]pyrimidine-4-carbonitrile, ENT-1]: 14.3 nM. With `Cc1cc(Oc2nccc3ncsc23)ccc1-c1c(C)ncc2nccn12` (single isomer, unassigned; ent-1) [Example 61, 4-[3-methyl-4-(6-methylimidazo[1,2-a]pyrazin-5-yl)phenoxy][1,3]thiazolo[5,4-c]pyridine, ENT-1], the Ki is 151 nM. Regarding `Cc1cc(Oc2nccc3ccsc23)ccc1-c1c(C)ncnc1C#N` (single isomer, unassigned; ent-2) [Example 46, 6-methyl-5-[2-methyl-4-(thieno[2,3-c]pyridin-7-yloxy)phenyl]pyrimidine-4-carbonitrile, ENT-2], the Ki amounted to 15.1 nM. The same measure for `Cc1cc(Oc2nccc3ncsc23)ccc1-c1c(C)ncc2nccn12` (single isomer, unassigned; ent-2) [Example 62, 4-[3-methyl-4-(6-methylimidazo[1,2-a]pyrazin-5-yl)phenoxy][1,3]thiazolo[5,4-c]pyridine, ENT-2]: 239 nM; for `Cc1cc(Oc2nccc3cnsc23)ccc1-c1c(C)n[nH]c(=O)c1C` [Example 3, 4,6-dimethyl-5-[2-methyl-4-([1,2]thiazolo[5,4-c]pyridin-7-yloxy)phenyl]pyridazin-3(2H)-one]: 10.9 nM; for `Cc1cc(Oc2ncnc3ccsc23)ccc1-c1cn[nH]c(=O)c1C` [Example 4, 4-methyl-5-[2-methyl-4-(thieno[3,2-d]pyrimidin-4-yloxy)phenyl]pyridazin-3(2H)-one]: 68.4 nM. The figure for `Cc1cc(Oc2nccc3ccsc23)ccc1-c1c(C)ncc(=O)n1C` [Example 5, 1,5-dimethyl-6-[2-methyl-4-(thieno[2,3-c]pyridin-7-yloxy)phenyl]pyrazin-2(1H)-one] is 1.6 nM. On to `Cc1cc(Oc2nccc3ccsc23)ccc1-c1c(C)ncnc1C` [Example 6, 7-[4-(4,6-dimethylpyrimidin-5-yl)-3-methylphenoxy]thieno[2,3-c]pyridine], for which the Ki was determined as 5.8 nM. As to `Cc1ncnc(C)c1-c1ccc(Oc2nccc3ncsc23)cc1C#N` [Example 7, 2-(4,6-dimethylpyrimidin-5-yl)-5-([1,3]thiazolo[5,4-c]pyridin-4-yloxy)benzonitrile], the Ki came to 184 nM. The same measure for `Cc1cc(Oc2nccc3ccsc23)ccc1-n1c(C)nc2cnccc21` [Example 8, 2-methyl-1-[2-methyl-4-(thieno[2,3-c]pyridin-7-yloxy)phenyl]-1H-imidazo[4,5-c]pyridine]: 13.1 nM; for `Cc1cc(Oc2nccc3ccoc23)ccc1-c1c(C)ncc2nccn12` [Example 9, 5-[4-(furo[2,3-c]pyridin-7-yloxy)-2-methylphenyl]-6-methylimidazo[1,2-a]pyrazine]: 57.2 nM; for `COc1cc(Oc2nccc3ccsc23)ccc1-c1nccnc1C` [Example 10, 7-[3-methoxy-4-(3-methylpyrazin-2-yl)phenoxy]thieno[2,3-c]pyridine]: 44.9 nM. The figure for `Cc1cc(Oc2nccc3ccoc23)ccc1-c1c(C)ncnc1C` [Example 11, 7-[4-(4,6-dimethylpyrimidin-5-yl)-3-methylphenoxy]furo[2,3-c]pyridine] is 57.8 nM.

With `Cc1cc(Oc2nccc3cc[nH]c23)ccc1-c1c(C)ncnc1C` [Example 12, 7-[4-(4,6-dimethylpyrimidin-5-yl)-3-methylphenoxy]-1H-pyrrolo[2,3-c]pyridine], the Ki was determined as 403 nM. The figure for `Cc1ncnc(C#N)c1-c1ccc(Oc2nccc3ccsc23)cc1F` [Example 13, 5-[2-fluoro-4-(thieno[2,3-c]pyridin-7-yloxy)phenyl]-6-methylpyrimidine-4-carbonitrile] is 34.5 nM. The figure for `Cc1cc(Oc2nccc3ccsc23)ccc1-c1c(C)cnnc1C` [Example 14, 7-[4-(3,5-dimethylpyridazin-4-yl)-3-methylphenoxy]thieno[2,3-c]pyridine] is 3.3 nM; for `Cc1cc(Oc2ncnc3ccsc23)ccc1-c1c(C)ncc(=O)n1C` [Example 15, 1,5-dimethyl-6-[2-methyl-4-(thieno[3,2-d]pyrimidin-4-yloxy)phenyl]pyrazin-2(1H)-one] it is 34.5 nM.

On to `Cc1cc(Oc2nccc3ncsc23)ccc1-c1c(C)ncc(=O)n1C` [Example 16, 1,5-dimethyl-6-[2-methyl-4-([1,3]thiazolo[5,4-c]pyridin-4-yloxy)phenyl]pyrazin-2(1H)-one], for which the Ki worked out at 82.8 nM. The figure for `Cc1ncnc(C)c1-c1ccc(Oc2ncnc3ccsc23)cc1Cl` [Example 17, 4-[3-chloro-4-(4,6-dimethylpyrimidin-5-yl)phenoxy]thieno[3,2-d]pyrimidine] is 25.4 nM; for `Cc1cc(Oc2ncnc3ccsc23)c(F)cc1-c1c(C)ncnc1C` [Example 18, 4-[4-(4,6-dimethylpyrimidin-5-yl)-2-fluoro-5-methylphenoxy]thieno[3,2-d]pyrimidine] it is 34.5 nM; for `Cc1ncnc(C)c1-c1ccc(Oc2ncnc3ccsc23)c(F)c1` [Example 19, 4-[4-(4,6-dimethylpyrimidin-5-yl)-2-fluorophenoxy]thieno[3,2-d]pyrimidine] it is 117 nM. The figure for `Cc1ncnc(C)c1-c1ccc(Oc2ncnc3ccsc23)c(F)c1C` [Example 20, 4-[4-(4,6-dimethylpyrimidin-5-yl)-2-fluoro-3-methylphenoxy]thieno[3,2-d]pyrimidine] is 121 nM.

Take `Cc1ncnc(C)c1-c1cc(F)c(Oc2ncnc3ccsc23)cc1F` [Example 21, 4-[4-(4,6-dimethylpyrimidin-5-yl)-2,5-difluorophenoxy]thieno[3,2-d]pyrimidine]: the Ki came to 62.4 nM. The figure for `Cc1ncnc(C)c1-c1ccc(Oc2ncnc3ccsc23)cc1` [Example 22, 4-[4-(4,6-dimethylpyrimidin-5-yl)phenoxy]thieno[3,2-d]pyrimidine] is 146 nM; for `COc1cc(Oc2ncnc3ccsc23)ccc1-c1c(C)ncnc1C` [Example 23, 4-[4-(4,6-dimethylpyrimidin-5-yl)-3-methoxyphenoxy]thieno[3,2-d]pyrimidine] it is 178 nM.

As to `Cc1ncnc(C)c1-c1ccc(Oc2ncnc3ccsc23)cc1F` [Example 24, 4-[4-(4,6-dimethylpyrimidin-5-yl)-3-fluorophenoxy]thieno[3,2-d]pyrimidine, trifluoroacetate salt], the Ki turned out to be 531 nM. The same measure for `Cc1cc(Oc2nccc3cn[nH]c23)ccc1-c1c(C)n[nH]c(=O)c1C` [Example 25, 4,6-dimethyl-5-[2-methyl-4-(1H-pyrazolo[3,4-c]pyridin-7-yloxy)phenyl]pyridazin-3(2H)-one]: 120 nM. In the case of `Cc1cc(Oc2nccc3ncsc23)ccc1-c1c(C)n[nH]c(=O)c1C` [Example 26, 4,6-dimethyl-5-[2-methyl-4-([1,3]thiazolo[5,4-c]pyridin-4-yloxy)phenyl]pyridazin-3(2H)-one], the Ki came out at 12.2 nM.

As for `Cc1cc(Oc2nccc3ncsc23)ccc1-c1cn[nH]c(=O)c1C` [Example 27, 4-methyl-5-[2-methyl-4-([1,3]thiazolo[5,4-c]pyridin-4-yloxy)phenyl]pyridazin-3(2H)-one], the Ki is 186 nM.
